According to patent EP0535155B1, “LIBRARIES OF MODIFIED PEPTIDES WITH PROTEASE RESISTANCE” (CHIRON CORPORATION, priority 1990, dated 2002):
Where a SMILES comes first, the peptide text is derived from it. The star is where a group is joined. Fmoc = O=C(OCC1c2ccccc2-c2ccccc21)*

Assays:
[1] = test system: trypsin; experiment: Proteolysis of peptoids and peptides by trypsin (RP-HPLC); conditions: trypsin (isolated protease) in Tris buffer, pH 8
Method: (§1) Each substrate was dissolved to 0.5 mg/mL in 10% DMSO, 100 mM Tris, 100 mM CaCl2, pH 8.0. Either trypsin or chymotrypsin was dissolved to 1 mg/mL in 0.001M HCI. At t=0, 10λ of enzyme or 0.001M HCI was added to 200λ of either the peptoid or peptide solution and incubated at 37°C. At the appropriate times, 50λ was removed and quenched with 50λ of 20% HOAc and assayed by HPLC on a C4 column with detection at 280 nm. The data below is given in percent area remaining on parent peak.

[2] = test system: trypsin
Method: as §1

[3] = test system: chymotrypsin; experiment: Proteolysis of peptoids and peptides by chymotrypsin (RP-HPLC); conditions: chymotrypsin (isolated protease) in Tris buffer, pH 8
Method: as §1

[4] = test system: chymotrypsin; experiment: in vitro; conditions: isolated enzyme chymotrypsin, pH 8
Method: as §1

[5] = test system: chymotrypsin
Method: as §1

[6] = physchem; conditions: buffer or solvent, pH 8
Method: as §1

**Q.** Which results are given for CC(C)C[C@H](NC(=O)OCC1c2ccccc2-c2ccccc21)C(=O)N[C@@H](CC(=O)O)C(=O)N[C@@H](Cc1ccccc1)C(=O)N[C@@H](CO)C(=O)N[C@@H](CCCCN)C(=O)NCC(=O)O [PEPTIDE, FMOC-LDFSKG-OH] (Fmoc-LDFSKG-OH)?
**A.** remaining at 5 min, 0.476 mg/mL [1]: 0%; remaining at 10 min, 0.476 mg/mL [1]: 0%; remaining at 3 h, 0.476 mg/mL [1]: 0%; time in which cleavage was complete [2]: ≤ 5 min; remaining at 5 min, 0.476 mg/mL [3]: 75%; remaining at 10 min, 0.476 mg/mL [3]: 41%; metabolised at 10 min, 0.476 mg/mL [4]: ~60%; remaining at 3 h, 0.476 mg/mL [4]: 0%; cleavage at the second site [5]: not cbmpletely cleaved; remaining at 5 min, 0.476 mg/mL [6]: 100%; remaining at 10 min, 0.476 mg/mL [6]: 100%; remaining at 3 h, 0.476 mg/mL [6]: < 100%
